Structures are written as SMILES. Several values for one entry are separate records, joined by “and”; a condition that tells them apart may be missing. Equal entries are not always repeated.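 Five compound concentrations were applied to cells in 96-well plates for 48 hours; endpoints were derived by simple linear interpolation of the resulting dose-response curve. At the GI50, growth is halved. TGI is the concentration that stops growth completely.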 Where only a bound is given, the exact number is not on record here.

The first experiment deals with MDA-MB-231 breast. Description: NCI-60 cell line screen, 48 h.
Regarding `Cc1csc(Nc2nc(-c3cccc(Br)c3)nc(C(Cl)(Cl)Cl)n2)n1`, the GI50 is 2.78 µM and the TGI was over 100 µM.

Consider `COc1c(OC)c(OC)c(C(=O)/C=C/c2ccccc2)c(OC)c1OC`, for which the TGI was 35.6 µM.

Regarding `NS(=O)(=O)c1ccc(N(/C=C/C(=O)C(F)(F)F)CC(=O)c2ccc(Cl)cc2)cc1`, the GI50 was 36.3 µM and the TGI is over 100 µM.

For the compound `CS(=O)(=O)CCCn1c(=O)c(Oc2ccc(F)cc2F)cc2cnc(NC3CCOCC3)nc21`, the GI50 is over 25 µM and the TGI was over 25 µM.

As to `N#C/C=C(\c1ccc([N+](=O)[O-])cc1)n1nnc2cc(Cl)c(Cl)cc21`, the GI50 is 2.34 µM and the TGI was found to be 8.66 µM.

As for `CCN(CC)CCOc1ccc(/C=C2\CC3C4CC=C5C[C@@H](O)CC[C@]5(C)C4CC[C@]3(C)C2=O)cc1OC` (stereo partly drawn), the GI50 is 2.31 µM and the TGI worked out at 7.38 µM.

Compound `O=C(CC(O)(C(F)(F)F)C(F)(F)F)c1cc(CC(=O)C(O)(C(F)(F)F)C(F)(F)F)cc(CC(=O)C(O)(C(F)(F)F)C(F)(F)F)c1` had a TGI of 3.3 µM.

The compound `O=c1c2ccccc2sc2cccc(NCCCN3CCN(CCCNc4cccc5sc6ccccc6c(=O)c45)CC3)c12` displayed a TGI of over 100 µM.

Turning to `Cc1cn2c(/C=C3\C(=O)Nc4ccc(O)cc43)c(-c3ccc(Cl)cc3)nc2s1`, the GI50 is 14.5 µM and the TGI is 54.2 µM.

With `CC1(C)OCCn2c1nc1c(N3CCOCC3)nc(-c3cnc(N)nc3)nc12`, the GI50 was 0.457 µM and the TGI was over 89.2 µM.

Turning to `O=C(c1c(F)ccc(NS(=O)(=O)N2CC[C@@H](F)C2)c1F)c1c[nH]c2ncc(-c3cnc(C4CC4)nc3)cc12`, the GI50 is 2.88 µM and 3.47 µM; the TGI is > 10 µM and 46.8 µM.

As to `COc1cc(-c2nn(-c3cccc(NC(=O)Nc4ccc(Cl)c(Cl)c4)c3)cc2-c2ccncc2)ccc1Cl`, the GI50 was 0.698 µM and the TGI is 1.92 µM.

Take `Nc1nc(N)c(N=Nc2ccc([As](=O)(O)O)cc2)c(=O)[nH]1`: the TGI is over 100 µM.

As for `CCOC(=O)C(=Cc1cccc(Cl)c1)C(=O)OCC`, the GI50 was 2.35 µM and the TGI worked out at 5.04 µM.

Regarding `C=CC(=O)N1CCC(C2CCNc3c(C(N)=O)c(-c4ccc(Oc5ccccc5)cc4)nn32)CC1` (stereo not drawn), the GI50 was 19.2 µM and the TGI came out at 92.5 µM.

As for `CCCCCCNC(=O)c1nc(-c2ccccc2)oc1Cc1ccc(OP(=O)(O)O)cc1`, the GI50 is 17.2 µM and the TGI was 36.6 µM.

For `Cc1ccc(/C=C/c2c(C(=O)/C=C/c3ccc(C(F)(F)F)cc3)c(C)nc3ccccc23)cc1`, the GI50 was 1.65 µM and the TGI came out at 3.43 µM.

For `CCCn1c(N)c(C(=O)N/N=C(/C)c2cc3cccc(OC)c3o2)sc1=S`, the GI50 is over 100 µM and the TGI was over 100 µM.

For `C=CCc1cccc(/C=N/NC(=O)CN2CCN(Cc3ccccc3)CC2)c1O`, the GI50 is 2.49 µM and the TGI is 15.5 µM.

For a further experiment, the system named is MOLT-4 leukemia. The experiment is described as follows: NCI-60 cell line screen, 48 h.
For the compound `Cc1csc(Nc2nc(-c3cccc(Br)c3)nc(C(Cl)(Cl)Cl)n2)n1`, the GI50 was over 40.9 µM and the TGI was over 100 µM.

In turn, `COc1c(OC)c(OC)c(C(=O)/C=C/c2ccccc2)c(OC)c1OC` had a TGI of 36.3 µM.

As for `NS(=O)(=O)c1ccc(N(/C=C/C(=O)C(F)(F)F)CC(=O)c2ccc(Cl)cc2)cc1`, the GI50 is 32.9 µM and the TGI was 89.9 µM.

In the case of `CS(=O)(=O)CCCn1c(=O)c(Oc2ccc(F)cc2F)cc2cnc(NC3CCOCC3)nc21`, the GI50 is over 25 µM and the TGI is over 25 µM.

With `N#C/C=C(\c1ccc([N+](=O)[O-])cc1)n1nnc2cc(Cl)c(Cl)cc21`, the GI50 is 2.71 µM and the TGI was over 100 µM.

For the compound `CCN(CC)CCOc1ccc(/C=C2\CC3C4CC=C5C[C@@H](O)CC[C@]5(C)C4CC[C@]3(C)C2=O)cc1OC` (stereo partly drawn), the GI50 is 2.04 µM and the TGI was over 23.5 µM.

`O=C(CC(O)(C(F)(F)F)C(F)(F)F)c1cc(CC(=O)C(O)(C(F)(F)F)C(F)(F)F)cc(CC(=O)C(O)(C(F)(F)F)C(F)(F)F)c1` registered a TGI of over 10 µM.

On to `O=c1c2ccccc2sc2cccc(NCCCN3CCN(CCCNc4cccc5sc6ccccc6c(=O)c45)CC3)c12`, for which the TGI is over 100 µM.

Consider `Cc1cn2c(/C=C3\C(=O)Nc4ccc(O)cc43)c(-c3ccc(Cl)cc3)nc2s1`, for which the GI50 is 9.97 µM and the TGI was found to be 27.1 µM.

Turning to `CC1(C)OCCn2c1nc1c(N3CCOCC3)nc(-c3cnc(N)nc3)nc12`, the GI50 was 0.33 µM and the TGI was over 100 µM.

Take `O=C(c1c(F)ccc(NS(=O)(=O)N2CC[C@@H](F)C2)c1F)c1c[nH]c2ncc(-c3cnc(C4CC4)nc3)cc12`: the GI50 was 6.66 µM and 5.12 µM; the TGI is > 10 µM and 35.5 µM.

On to `COc1cc(-c2nn(-c3cccc(NC(=O)Nc4ccc(Cl)c(Cl)c4)c3)cc2-c2ccncc2)ccc1Cl`, for which the GI50 was 1.1 µM and the TGI came to 4.48 µM.

In turn, `Nc1nc(N)c(N=Nc2ccc([As](=O)(O)O)cc2)c(=O)[nH]1` had a TGI of over 100 µM.

`CCOC(=O)C(=Cc1cccc(Cl)c1)C(=O)OCC`: the GI50 was 3.08 µM and the TGI was determined as 9.81 µM.

`C=CC(=O)N1CCC(C2CCNc3c(C(N)=O)c(-c4ccc(Oc5ccccc5)cc4)nn32)CC1` (stereo not drawn): the GI50 is 5.36 µM and the TGI was 31 µM.

Regarding `CCCCCCNC(=O)c1nc(-c2ccccc2)oc1Cc1ccc(OP(=O)(O)O)cc1`, the GI50 was 20.9 µM and the TGI turned out to be 54.8 µM.

On to `Cc1ccc(/C=C/c2c(C(=O)/C=C/c3ccc(C(F)(F)F)cc3)c(C)nc3ccccc23)cc1`, for which the GI50 was 0.625 µM and the TGI was over 100 µM.

Regarding `CCCn1c(N)c(C(=O)N/N=C(/C)c2cc3cccc(OC)c3o2)sc1=S`, the GI50 is 24.2 µM and the TGI was over 100 µM.

As to `C=CCc1cccc(/C=N/NC(=O)CN2CCN(Cc3ccccc3)CC2)c1O`, the GI50 is 1.12 µM and the TGI is 5.64 µM.

For the origin of these results see PubChem BioAssay (NCI).
